Data as given in the NIST ThermoML archive (doi:10.1021/acs.jced.6b00687).
± gives the expanded uncertainty stated by the source.

Experiment: xn = mol fraction of the nth substance listed
Details: Gas, Buoyancy - hydrostatic balance with magnetic suspension - two sinkers

[Ar] [argon] + O=C=O
Details	mass density [kg/m3]
273.15 K, 510.11 kPa, x2 = 0.7509	9.89648 ± 0.0044
273.15 K, 511.42 kPa, x2 = 0.5	9.60258 ± 0.0043
273.15 K, 1005.7 kPa, x2 = 0.7509	20.0055 ± 0.0078
273.15 K, 1013.1 kPa, x2 = 0.5	19.3275 ± 0.0073
273.15 K, 2007.3 kPa, x2 = 0.7509	42.2195 ± 0.015
273.15 K, 2996.7 kPa, x2 = 0.7509	67.1561 ± 0.026
273.15 K, 3008.4 kPa, x2 = 0.5	61.4185 ± 0.022
273.15 K, 4022.5 kPa, x2 = 0.7509	97.4841 ± 0.045
273.15 K, 4488.6 kPa, x2 = 0.7509	113.378 ± 0.053
273.15 K, 5000.6 kPa, x2 = 0.7509	133.062 ± 0.059
273.15 K, 5017 kPa, x2 = 0.5	110.665 ± 0.05
273.15 K, 6031.1 kPa, x2 = 0.5	138.861 ± 0.047
273.15 K, 6410 kPa, x2 = 0.5	150.086 ± 0.05
283.15 K, 508.18 kPa, x2 = 0.7509	9.48215 ± 0.0043
283.15 K, 1002 kPa, x2 = 0.7509	19.109 ± 0.0073
283.15 K, 2002.5 kPa, x2 = 0.7509	40.0616 ± 0.014
283.15 K, 2989.1 kPa, x2 = 0.7509	63.047 ± 0.022
283.15 K, 3992.2 kPa, x2 = 0.7509	89.5274 ± 0.036
283.15 K, 4988.1 kPa, x2 = 0.7509	120.07 ± 0.063
283.15 K, 6073.3 kPa, x2 = 0.7509	160.561 ± 0.096
283.15 K, 6588 kPa, x2 = 0.7509	183.67 ± 0.17
283.15 K, 7263.8 kPa, x2 = 0.7509	219.753 ± 0.21
293.15 K, 502.06 kPa, x2 = 0.7509	9.02478 ± 0.0042
293.15 K, 1001.8 kPa, x2 = 0.7509	18.3618 ± 0.0071
293.15 K, 2024.4 kPa, x2 = 0.7509	38.7149 ± 0.014
293.15 K, 3001.1 kPa, x2 = 0.7509	60.0081 ± 0.021
293.15 K, 4009 kPa, x2 = 0.7509	84.353 ± 0.03
293.15 K, 4996.8 kPa, x2 = 0.7509	111.184 ± 0.044
293.15 K, 6024 kPa, x2 = 0.7509	143.207 ± 0.068
293.15 K, 7049 kPa, x2 = 0.7509	180.86 ± 0.11
293.15 K, 8016.8 kPa, x2 = 0.7509	223.61 ± 0.17
293.15 K, 9051.1 kPa, x2 = 0.7509	279.404 ± 0.24
298.15 K, 505.28 kPa, x2 = 0.5	8.65443 ± 0.21
298.15 K, 1014.6 kPa, x2 = 0.5	17.5824 ± 0.4
298.15 K, 2019.2 kPa, x2 = 0.5	35.8258 ± 0.013
298.15 K, 3020.7 kPa, x2 = 0.5	54.9064 ± 0.42
298.15 K, 4024.4 kPa, x2 = 0.5	75.0005 ± 2.1
298.15 K, 5017 kPa, x2 = 0.5	95.8895 ± 5.1
298.15 K, 6025.4 kPa, x2 = 0.5	118.229 ± 0.04
298.15 K, 7045.2 kPa, x2 = 0.5	142.007 ± 7.5
298.15 K, 8014 kPa, x2 = 0.5	165.743 ± 16
323.15 K, 514.24 kPa, x2 = 0.7509	8.34326 ± 0.004
323.15 K, 516.98 kPa, x2 = 0.4998	8.14761 ± 0.0039
323.15 K, 1021 kPa, x2 = 0.7509	16.796 ± 0.0066
323.15 K, 1022 kPa, x2 = 0.4998	16.244 ± 0.0064
323.15 K, 2012.2 kPa, x2 = 0.7509	34.0421 ± 0.014
323.15 K, 3034 kPa, x2 = 0.4998	49.9179 ± 0.018
323.15 K, 3036.1 kPa, x2 = 0.7509	52.9514 ± 0.019
323.15 K, 4037.8 kPa, x2 = 0.7509	72.6588 ± 0.031
323.15 K, 5040.2 kPa, x2 = 0.4998	85.8585 ± 0.031
323.15 K, 5061.8 kPa, x2 = 0.7509	94.214 ± 0.035
323.15 K, 6055.5 kPa, x2 = 0.7509	116.646 ± 0.053
323.15 K, 7040 kPa, x2 = 0.4998	124.127 ± 0.048
323.15 K, 7054.8 kPa, x2 = 0.7509	140.911 ± 0.055
323.15 K, 8053.7 kPa, x2 = 0.7509	167.037 ± 0.095
323.15 K, 9016.6 kPa, x2 = 0.4998	164.336 ± 0.073
323.15 K, 9045 kPa, x2 = 0.7509	195.026 ± 0.082
